# Test results: patent publication US8247429B2, “Tricyclic compound and pharmaceutical use thereof” (Takeda Pharmaceutical Company Limited, priority 2006, dated 2012)
# How the values were obtained:
# [1] = target: T1, human melatonin 2 receptors (human MT2 receptors) (Homo sapiens, UniProt P49286); experiment: Melatonin receptor binding inhibitory test (2-[125I] Iodomelatonin), MT2; details: membrane fraction of CHO-hMT2 cells, 25° C. for 2.5 hr
# T1 construct: expressed in transfected cells; membrane fraction used
# T1 sequence (P49286 1-362): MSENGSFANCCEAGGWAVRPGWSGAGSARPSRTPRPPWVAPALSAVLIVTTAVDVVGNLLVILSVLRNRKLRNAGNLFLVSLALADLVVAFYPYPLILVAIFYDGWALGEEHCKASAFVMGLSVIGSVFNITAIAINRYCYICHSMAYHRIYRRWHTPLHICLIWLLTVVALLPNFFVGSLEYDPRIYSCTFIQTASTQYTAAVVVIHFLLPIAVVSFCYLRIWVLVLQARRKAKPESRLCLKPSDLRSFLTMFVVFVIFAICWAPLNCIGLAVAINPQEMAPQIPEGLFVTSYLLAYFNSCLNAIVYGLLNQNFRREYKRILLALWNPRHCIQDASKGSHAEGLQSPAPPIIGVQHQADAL
# Experimental: (§1) Melatonin receptor binding inhibitory test
# (2) Preparation of CHO-hMT2 Cells Expressing Human Melatonin 2 Receptors
# A cDNA fragment (SEQ ID NO: 2) encoding full-length of human melatonin 2 receptors (human MT2 receptors) was incorporated into expression vector pCMV-Script (Stratagene, #212220) to give the plasmid that was pCMV-human MT2 receptors expression vector for animal cell expression. CHO-K1 cells (ATCC, #CCL-61) were plated at the concentration of 1.5×10^5 cells/cm^2 in a 6 well plate (ASAHI TECHNO GLASS), and cultured under the conditions of 37° C., 5% CO2 for 24 hr. For gene transfection, solution obtained by blending pCMV-human MT2 receptors expression vector (1.9 μg), Lipofectamine Transfection Reagent (Invitrogen, #18324-012) (11.3 μL) and Minimum Essential Medium Eagle (MEM) medium (Sigma, M8042) (93.8 μL), and reacting at room temperature for 20 min was added to the cells per one well. The transfected cells were cultured in MEM medium containing 10% FBS (Life Technology) and 300 μg/mL Geneticin (GIBCO, #10131), and the cell line that stably expressed the plasmid gene was selected. By a receptor binding assay using 2-[^125I] Iodomelatonin, CHO-hMT2 cell line showing specific binding of 2-[^125I] Iodomelatonin was selected from the obtained clones.
# (§2) (3) Preparation of Cellular Membrane Fraction of CHO Cell (CHO-hMelR7 and CHO-hMT2) Stably Expressing Human MT1 and MT2 Receptors
# (§3) CHO-hMelR7 and CHO-hMT2 cells were plated using Cellfactory (Nunc, #170009) under the conditions of 1×10^8 cells/2000 mL/flask. The cells were grown to confluent, and recovered by the following method. As the medium for CHO-hMelR7 and CHO-hMT2, MEM α containing 10% FBS and penicillin/streptomycin was used. […] of geneticin was added to the medium for CHO-hMT2.
# (§4) The medium was discarded, cells were washed twice with 200 mL of EDTA/PBS(−), 200 mL of EDTA/PBS(−) was further added, and the cells were stood still at room temperature for 20 min until they were released. The cells were recovered in four 50 mL tubes (Becton Dickinson, #352070), and centrifuged at 1,500 rpm for 10 min at 4° C. using a low speed cooling centrifuge (Hitachi, CF7D2). The supernatant was discarded, the pellets in the four tubes were suspended in 10 mL of PBS(−), and combined in one tube (Becton Dickinson, #352070). The mixture was further centrifuged at 1,500 rpm for 10 min at 4° C., and the obtained pellets were suspended in 20 mL of ice-cooled homogenizing buffer [10 mM NaHCO3, 5 mM EDTA, Protease inhibitor Complete (Roche), pH 7.4]. The cell suspension was homogenized 3 times using a polytron homogenizer at 20,000 rpm for 30 sec. The obtained homogenate was centrifuged (2,000 rpm, 10 min, 4° C.) using a low speed cooling centrifuge. The supernatant was recovered in an ultracentrifugation tube and ultracentrifuged (40,000 rpm, 60 min, 4° C.) using an ultracentrifuge (Beckman, L-90K). To the obtained pellets was added a suspending buffer [50 mM Tris-HCl, 1 mM EDTA, Protease inhibitor Complete (Roche), pH 7.4], and the pellets were suspended by pipetting. The protein concentration of this suspension was measured, diluted to 2 mg/mL to give cellular membrane fractions of CHO-hMelR7 and CHO-hMT2 cells. The membrane fractions were dispensed to 1.5 mL tubes (Eppendorf, #0030120.086) by 100 μL, preserved in a freezer (−80° C.) and used for a binding assay. Protein was quantified using BCA protein assay kit (Pierce) with BSA as the standard.
# (§5) (4) Preparation of Membrane Fraction Suspension
# (§6) Immediately before use, the membrane fractions of CHO-hMelR7 and CHO-hMT2 cells of the above-mentioned (3) were diluted 20-fold with assay buffer (50 mM Tris-HCl, pH 7.7).
# (§7) (5) Preparation of 2-[^125I] Iodomelatonin Solution
# (§8) 2-[^125I] Iodomelatonin (#NEX236, PerkinElmer) was diluted with the assay buffer to 400 pM for MT1 and 1 nM for MT2.
# (§9) The assay buffer (80 μL) of the above-mentioned (4) was added to each well of a 96-well plate (type 3363, Corning). […]
# [2] = target: T2, human melatonin 1 receptors (human MT1 receptors) (Homo sapiens, UniProt P48039); experiment: Melatonin receptor binding inhibitory test (2-[125I] Iodomelatonin), MT1; details: membrane fraction of CHO-hMelR7 cells, 25° C. for 2.5 hr
# T2 construct: expressed in transfected cells; membrane fraction used
# Experimental: as §1
# (1) Preparation of CHO-hMelR7 Cells Expressing Human Melatonin 1 Receptors
# A cDNA fragment (SEQ ID NO: 1) encoding full-length of human melatonin 1 receptors (human MT1 receptors) was incorporated into expression vector pAKKO-111H (former name pAKKO1.11H; Biochim Biophys Acta. Vol. 1219(2), pp. 251-259, 1994) to give plasmid pAKKO-hMelR7 for animal cell expression. CHO/dhfr-cells (ATCC, #CRL-9096) were plated at a concentration of 0.3×10^6 cells/dish in a 6 cm culture dish (Becton Dickinson), and cultured under the conditions of 37° C., 5% CO2 for 48 hr. The cells were transfected with pAKKO-hMelR7 plasmid DNA (5 μg) using Cellphect Transfection Kit (Amersham, #27-9268-01). The transfected cells were cultured in Dulbecco's modified Eagle medium (DMEM) (Sigma, #D6046) containing 10% dialyzed FBS (Biowest, #S180D), 1× Non-Essential Amino Acid (Invitrogen, #11140-050) and 50 μg/mL Gentamycin (Invitrogen, #15750-060), and the cell line that stably expressed the plasmid gene was selected. By a receptor binding assay using 2-[^125I] Iodomelatonin, CHO-hMelR7 cell line showing specific binding of 2-[^125I] Iodomelatonin was selected from the obtained clones.
# as §2, §3, §4, §5, §6, §7, §8, §9
# T2 sequence (P48039 whole entry): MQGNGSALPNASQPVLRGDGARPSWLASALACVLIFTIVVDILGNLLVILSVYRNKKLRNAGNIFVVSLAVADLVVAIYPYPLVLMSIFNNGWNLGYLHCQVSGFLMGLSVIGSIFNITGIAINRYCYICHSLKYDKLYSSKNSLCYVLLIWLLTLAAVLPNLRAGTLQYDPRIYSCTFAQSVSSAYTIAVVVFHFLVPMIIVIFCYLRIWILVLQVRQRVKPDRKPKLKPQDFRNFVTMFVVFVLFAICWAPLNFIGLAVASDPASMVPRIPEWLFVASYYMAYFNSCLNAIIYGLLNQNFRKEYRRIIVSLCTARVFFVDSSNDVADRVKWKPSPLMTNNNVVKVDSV
SMILES,IC50 [1] [nM],melting point [°C],IC50 [2] [nM]
"CCC(=O)NCCC1CCc2c(F)cc3nn(C)cc3c21 (stereo not shown) [Example 29, N-[2-(5-fluoro-2-methyl-2,6,7,8-tetrahydrocyclopenta[e]indazol-8-yl)ethyl]propanamide]",≤ 100,117 to 119,≤ 100
"CCC(=O)NCCC1CCc2ccn3nc(C)cc3c21 (stereo not shown) [Example 32, N-[2-(2-methyl-8,9-dihydro-7H-cyclopenta[c]pyrazolo[1,5-a]pyridin-9-yl)ethyl]propanamide]",≤ 100,,≤ 100
"CC(=O)NCC[C@@H]1CCc2ccc3nn(C)c(Cl)c3c21 [Example 24, N-{2-[(8S)-1-chloro-2-methyl-2,6,7,8-tetrahydrocyclopenta[e]indazol-8-yl]ethyl}acetamide]",≤ 100,168 to 171,≤ 100
"CC(=O)NCCC1CCc2c(Cl)cc3nn(C)cc3c21 (stereo not shown) [Example 31, N-[2-(5-chloro-2-methyl-2,6,7,8-tetrahydrocyclopenta[e]indazol-8-yl)ethyl]acetamide]",≤ 100,143 to 144,≤ 100
"CCC(=O)NCCC1CCc2ccc3nn(C)cc3c21 (stereo not shown) [Example 6, N-[2-(2-methyl-2,6,7,8-tetrahydrocyclopenta[e]indazol-8-yl)ethyl]propanamide]",≤ 100,,≤ 100
"CC(=O)NCC[C@@H]1CCc2ccc3nn(C)c(Br)c3c21 [Example 25, N-{2-[(8S)-1-bromo-2-methyl-2,6,7,8-tetrahydrocyclopenta[e]indazol-8-yl]ethyl}acetamide]",≤ 100,,≤ 100
"CC(=O)NCCC1CCc2ccc3nc(C)cn3c21 (stereo not shown) [Example 22, N-[2-(2-methyl-7,8-dihydro-6H-cyclopenta[e]imidazo[1,2-a]pyridin-8-yl)ethyl]acetamide]",≤ 100,,≤ 100
"CC(=O)NCCC1CCc2ccn3nccc3c21 (stereo not shown) [Example 11, N-[2-(8,9-dihydro-7H-cyclopenta[c]pyrazolo[1,5-a]pyridin-9-yl)ethyl]acetamide]",≤ 100,100 to 101,≤ 100
CC(=O)NCC[C@@H]1CCc2ccc3nn(C)cc3c21 [Example 3],≤ 100,,≤ 100
"CC(=O)NCCC1CCc2ccc3nn(C)cc3c21 (stereo not shown) [Example 2, N-[2-(2-methyl-2,6,7,8-tetrahydrocyclopenta[e]indazol-8-yl)ethyl]acetamide]",≤ 100,,≤ 100
"CC(=O)NCC[C@@H]1CCc2ccc3nn(C)c(F)c3c21 [Example 23, N-{2-[(8S)-1-fluoro-2-methyl-2,6,7,8-tetrahydrocyclopenta[e]indazol-8-yl]ethyl}acetamide]",≤ 100,155 to 156,≤ 100
"CC(=O)NCC[C@@H]1CCc2ccn3nc(C)cc3c21 [Example 19, N-{2-[(9S)-2-methyl-8,9-dihydro-7H-cyclopenta[c]pyrazolo[1,5-a]pyridin-9-yl]ethyl}acetamide]",≤ 100,,≤ 100
"CCc1cc2c3c(ccn2n1)CCC3CCNC(C)=O (stereo not shown) [Example 21, N-[2-(2-ethyl-8,9-dihydro-7H-cyclopenta[c]pyrazolo[1,5-a]pyridin-9-yl)ethyl]acetamide]",≤ 100,,≤ 100
"CC(=O)NCCC1CCc2ccn3nc(C)cc3c21 (stereo not shown) [Example 18, N-[2-(2-methyl-8,9-dihydro-7H-cyclopenta[c]pyrazolo[1,5-a]pyridin-9-yl)ethyl]acetamide]",≤ 100,,≤ 100

# Second part, the molecule after the results:
IC50 [1] [nM],melting point [°C],IC50 [2] [nM],SMILES
≤ 100,185 to 187,≤ 100,"CCC(=O)NCC=C1CCc2ccc3nn(C)cc3c21 [Example 5, N-[2-(2-methyl-6,7-dihydrocyclopenta[e]indazol-8(2H)-ylidene)ethyl]propanamide]"
,101 to 103,,"CCOC(=O)c1c(C)nn2ccc3c(c12)C(CCNC(C)=O)CC3 (stereo not shown) [Example 13, ethyl 9-[2-(acetylamino)ethyl]-2-methyl-8,9-dihydro-7H-cyclopenta[c]pyrazolo[1,5-a]pyridine-1-carboxylate]"
,121 to 122,,"CC(=O)NCCC1CCc2ccn3ncc(C)c3c21 (stereo not shown) [Example 10, N-[2-(1-methyl-8,9-dihydro-7H-cyclopenta[c]pyrazolo[1,5-a]pyridin-9-yl)ethyl]acetamide]"
≤ 100,116 to 119,≤ 100,"CC(=O)NCCC1CCc2c(F)cc3nn(C)cc3c21 (stereo not shown) [Example 28, N-[2-(5-fluoro-2-methyl-2,6,7,8-tetrahydrocyclopenta[e]indazol-8-yl)ethyl]acetamide]"
≤ 100,200 to 203,≤ 100,"CC(=O)NCC=C1CCc2ccc3nn(C)c(C)c3c21 [Example 7, N-[2-(1,2-dimethyl-6,7-dihydrocyclopenta[e]indazol-8(2H)-ylidene)ethyl]acetamide]"
≤ 100,146 to 149,≤ 100,"CC(=O)NCCC1CCc2ccc3nn(C)c(C)c3c21 (stereo not shown) [Example 8, N-[2-(1,2-dimethyl-2,6,7,8-tetrahydrocyclopenta[e]indazol-8-yl)ethyl]acetamide]"
≤ 100,159 to 160,,"CC(=O)NCCC1CCc2ccn3nc(-c4ccccc4)cc3c21 (stereo not shown) [Example 34, N-[2-(2-phenyl-8,9-dihydro-7H-cyclopenta[c]pyrazolo[1,5-a]pyridin-9-yl)ethyl]acetamide]"
